According to patent US8597904B2, “Pharmaceutical compositions for the treatment of conditions responsive to proteasome inhibition” (priority 2007, dated 2013):
Residues, ends and D or L forms follow the SMILES beside them. *: point of attachment. Cbz = O=C(OCc1ccccc1)*

Columns and labels:
[1] = biological target: T1, proteasome activity in SK-N-SH neuroblastoma cells (Homo sapiens, UniProt P28074); test: Proteasome-Glo cell-based luminescent assay; settings: 2 hours incubation
T1 construct: endogenous in cells; host or cells: SK-N-SH
T1 sequence (P28074 60-263): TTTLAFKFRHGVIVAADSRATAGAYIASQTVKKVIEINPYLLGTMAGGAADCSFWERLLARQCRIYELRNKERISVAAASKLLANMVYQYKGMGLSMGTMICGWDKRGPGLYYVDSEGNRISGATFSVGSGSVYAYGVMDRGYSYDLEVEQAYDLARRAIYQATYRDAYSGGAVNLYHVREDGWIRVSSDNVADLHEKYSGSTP
Procedure: Syringolin A was tested as a proteasome inhibitor in vivo in cultured mammalian cancer cells. Inhibition of proteasome activity in human SK-N-SH neuroblastoma cells was measured using the Proteasome-Glo™ cell-based luminescent assay (Promega) in solid white 96-well microtiter cell culture plates. Ten μl of syringolin A (at various concentrations) was added to each well containing SK-N-SH cells (plated at a concentration of 1.0×10^5 cells/ml in 90 μl well volumes 24 hours prior) and a negative control and media only control were included. Cells were incubated with 1-100 μM syringolin A for 2 hours or 24 hours, and then equilibrated to room temperature for 15 minutes before 100 μl of Proteasome-Glo reagent (containing bioluminescent substrate Suc-LLVY-aminoluciferin) was added to the cells. Luminescence (indicated as relative luminescence units [RLU]) was read after 15-30 minutes on a Dynex MLX Luminometer.
To trace the kinetics of proteasome inhibition in the presence of syringolin, the same experiment was performed, but in this case, 100 μl of Proteasome-Glo reagent was added to cells first, followed by the addition of syringolin A at various concentrations, and the proteasome activity was measured over time.
The cell culture-based proteasome inhibition assay was performed as previously described (Groll et al. 2008. Nature 452:755-758, which is incorporated herein by reference in its entirety). Briefly, wells of white-walled 96-well microtiter cell culture plates were seeded at a density of 1×10^4 cells/well (SK-N-SH) or 5×10^3 cells/well (SKOV3) in 90 μl. After 24 hours, 10 μl GlbA or SylA were added at increasing concentrations (0-100 μM) and incubated for 2 hours. […] Cell Death Differ 9:1017-1025; Meng, et al. 1999. PNAS 96:10403-10408, each of which is incorporated herein by reference in its entirety) were used as positive and negative controls, respectively. Microtiter plates were then equilibrated to room temperature for 15 min before adding 100 μl of proteasome Glo™ reagent (containing bioluminescent substrate Suc-LLVY-aminoluciferin) per well. Luminescence was measured on a Dynex MLX luminometer, according to the manufacturer's instructions (Promega).

[2] = biological target: T2, human erythrocyte 20S proteasomes, chymotrypsin-like activity (Homo sapiens, UniProt P28074); format: biochemical
T2 construct: which contains human erythrocyte 20S proteasomes; purchased BIOMOL International AK-740; host or cells: human erythrocytes
Procedure: A 100 μl reaction volume contained 2 μg/ml 20S proteasome, 100 μM substrate, and the desired concentrations of syringolin A in dilution buffer (50 mM Tris-HCl, pH 7.5, 25 mM KCl, 10 mM NaCl, 1 mM MgCl2). Epoximicin and MG132 (BIOMOL® International) were used as test inhibitors. The release of free AMC (7-amino-4-methylcoumarin) at 37° C. was monitored with an MWGt Sirius HT fluorescence microplate reader (BIO-TEK® Instruments) equipped with a 360 nm excitation and a 460 nm emission filter. Proteolytic activities were measured as the increase in relative fluorescence units (RFU) over time (FIG. 7A-C). […] The initial velocities (vi) were determined from the time derivative of these curves and plotted versus the corresponding inhibitor concentration ([I]). […] Using SigmaPlot, the data were fitted to the hyperbolic equation vi=c+[v0/(Ki′+[I])], where v0 is the velocity of the control. […] The rate of covalent inhibition (kassociation), which equals kobs/[I] was calculated over the range of inhibitor concentrations given in parentheses in FIG. 7D. Values in FIG. 7D represent means±standard deviation.
The fluorogenic substrates Suc-LLVY-AMC, Boc-LRR-AMC, and Z-LLE-AMC (BIOMOL® International) were used to monitor chymotrypsin-like, trypsin-like, and caspase-like activities, respectively. […] The release of free AMC (7-amino-4-methylcoumarin) at 37° C. was monitored with an MWGt Sirius HT fluorescence microplate reader (BIO-TEK® Instruments) equipped with a 360 nm excitation and a 460 nm emission filter.

bovine pancreas trypsin = biological target: T3, bovine pancreas trypsin (Bos taurus, UniProt P00760); test: SensoLyte Green Protease Fluorometric Assay, trypsin inhibition; format: biochemical; settings: syringolin A up to 500 μM
T3 construct: bovine pancreas trypsin (Pierce); purchased Pierce; host or cells: bovine pancreas
T3 sequence (P00760 24-246): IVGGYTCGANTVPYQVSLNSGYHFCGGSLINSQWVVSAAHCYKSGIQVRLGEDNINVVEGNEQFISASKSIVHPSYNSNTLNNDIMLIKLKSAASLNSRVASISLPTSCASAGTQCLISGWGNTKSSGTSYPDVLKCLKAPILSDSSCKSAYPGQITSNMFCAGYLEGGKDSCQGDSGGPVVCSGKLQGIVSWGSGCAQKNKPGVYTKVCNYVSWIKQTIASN
Procedure: (§1) To test the specificity of syringolin A inhibition of proteasome activities, bovine pancreas trypsin (Pierce) and Papaya latex papain (Sigma-Aldrich) inhibition assays with syringolin A were performed with the SensoLyte™ Green Protease Fluorometric Assay Kit (AnaSpec., San Jose, Calif., USA) according to the instructions of the manufacturer. Reaction volumes of 100 μl contained an enzyme concentration of 200 ng/ml and various amounts of test inhibitors. Protease activity was monitored at 33° C. in a FluoroCount Microplate Fluorometer (FluoroCount, Packard, Canberra, Australia) using 485 nm excitation and a 550 nm emission filters.

Papaya latex papain = biological target: T4, Papaya latex papain (Carica papaya, UniProt P00784); test: SensoLyte Green Protease Fluorometric Assay, papain inhibition; format: biochemical; settings: syringolin A up to 500 μM
T4 construct: Papaya latex papain (Sigma-Aldrich); purchased Sigma-Aldrich; host or cells: papaya latex
T4 sequence (P00784 134-345): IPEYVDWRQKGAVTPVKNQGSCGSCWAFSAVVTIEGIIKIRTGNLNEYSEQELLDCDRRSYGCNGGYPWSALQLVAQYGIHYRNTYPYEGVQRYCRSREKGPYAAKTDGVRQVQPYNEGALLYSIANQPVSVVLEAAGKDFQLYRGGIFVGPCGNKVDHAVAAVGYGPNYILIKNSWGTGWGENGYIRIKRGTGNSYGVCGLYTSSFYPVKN
Procedure: as §1

[3] = tested on: poly (ADP-ribose) polymerase (PARP); test: Western blot of PARP cleavage in SK-N-SH cells; format: cell-based, human; settings: Example 15, single agent
Procedure: The induction of an apoptotic response in cancer cells by the addition of syringolin A was verified by monitoring the cleavage of poly (ADP-ribose) polymerase (PARP), a common response during apoptosis. SK-N-SH cells were cultured in the presence or absence of 20 μM syringolin A for 0, 24 and 48 hours, and cell lysates were then generated as described in Example 4 and probed for the presence of PARP by Western blotting using rabbit polyclonal anti-PARP (#9542) (diluted 1:1000) and the HRP-linked anti-rabbit secondary antibody described in Example 4. The results were representative of four independent experiments. […] The treatment of cells for 48 hours further increased the levels of cleaved PARP, whereas noncleaved PARP disappeared. In a similar manner, syringolin A induced PARP cleavage in SKOV3 cells, but noncleaved PARP was still detected 48 hours after treatment (FIG. 5B).
The role of glidobactin A (GlbA) in apoptosis and its correlation with autophagy has not previously been examined. Therefore, in a series of experiments, cell lysates of SK-N-SH cells were treated with GlbA in the presence and absence of the autophagy inhibitor 3-methyladenine (3-MA) and probed for poly ADP-ribose polymerase (PARP). The cleavage of PARP produces a smaller 89 kDa fragment which is indicative of late apoptosis.

SK-N-SH cells = test: Cytox-Glo cytotoxicity assay; format: cell-based, human; settings: light microscope, 48 hours
Procedure: Determination of potential cytotoxic effects by GlbA and/or […] was carried out by using the Cytox-Glo cytotoxicity assay, which measures “dead cell proteases” from cells that have lost membrane integrity. Briefly, cells were treated with a single concentration of compound for 48 hours in a final volume of 100 μl, after which 50 μl of AAF-Glo luminogenic peptide substrate (alanyl-alanyl-phenylalanyl-aminoluciferin) was added to each well and incubated for 15 min at room temperature. The luminescence was measured by a Dynex MLX luminometer to give a reading of cells with damaged membranes. Next, 50 μl of digitonin was added to each well and the samples incubated for 15 minutes at room temperature. Luminescence was measured a second time to determine total cell number. Controls included cells with vehicle only, media, and media with compound.
SK-N-SH cells were treated with 0.25 μM GlbA or 25 μM SylA and SKOV3 cells were treated with 1.0 μM GlbA or 25 μM SylA. As illustrated in FIGS. 16A and 16B, control cells (treated with DMSO and H2O representing GlbA and SylA controls, respectively) were viable and no cytotoxicity was detected.
To determine if autophagy plays a role in GlbA/SylA-induced cell death, levels of cytotoxicity in cells pre-treated with 3-methyladenine (3-MA), an established autophagy inhibitor, were measured using the assay described in Example 12.

[4] = tested on: microtubule-associated protein 1 light chain 3 (LC3); test: immunoblot of LC3 conversion (autophagy) in SK-N-SH cells; format: cell-based, human; settings: compared to untreated control cells
Procedure: To verify whether autophagy is induced in GlbA-treated cells, levels of microtubule-associated protein 1 light chain 3 (LC3), a reliable marker of autophagosomes, were measured. […] Therefore, this characteristic conversion of LC3 can be used to monitor autophagic activity. SK-N-SH cells were treated with GlbA in the presence or absence of 3-MA, and cell lysates were probed with LC3.

`C/C=C/C/C=C/CCC(=O)[C@H]1O[C@H]1C(N)=O` [cerulenin, reference compound] was tested, and the “proteasome activity in cells” value [1] was “does not significantly inhibit proteasome activity”.
`CC(C)C[C@@H](C=O)NC(=O)[C@H](CC(C)C)NC(=O)[C@H](CC(C)C)NC(=O)OCc1ccccc1` [MG-132, reference compound] (Cbz-Leu-Leu-Leu-aldehyde) was tested, and the “mode of proteasome inhibition (reaction velocity over time)” value [2] was “reversible”, the trypsin activity (bovine pancreas trypsin) was “trypsin inhibitor” and the papain activity (Papaya latex papain) was “also inhibits cysteine proteases”.
With glidobactin A the proteasome chymotrypsin-like activity ([2]; 500-fold dilution of 10× concentrated HPLC peak) was “reduced proteasome activity to background levels”.
In the case of `Cn1cnc(N)c2ncnc1-2` [3-MA, 3-methyladenine, reference compound], the PARP cleavage [3] was “had no effect on PARP cleavage”, the “cell proliferation and killing, 3-MA control cells” value (SK-N-SH cells) was “suppresses SK-N-SH cell proliferation without killing cells” and the “LC3-II amount / conversion of LC3” value [4] was “did not alter the conversion of LC3”.
